Here are results for 3 molecules from patent US12502430B2, “Compound for photodynamic therapy of cancer, composition including same, and method for photodynamic therapy of cancer” (Pukyong National University Industry-University Cooperation …, priority 2021, dated 2025).

Data set [1] in a line: UV-Vis absorption and fluorescence emission spectroscopy. The format is physicochemical. To be noted: in Toluene. From the text:
The photophysical properties of the collected products were studied by UV-Vis absorption and fluorescence emission spectroscopy, and the results are shown in FIGS. 1A to 1B and Table 1. In the UV-Vis absorption spectrum, BO and NO show absorption peaks in the region of about 380 nm, and BS and NS show absorption maximum values in the region of about 435 nm. The difference in the absorption peak may be confirmed from the shape difference of the HOMO-LUMO of FIG. 2A.

A short description of data set [2]: Singlet oxygen quantum yield determination. It counts as physicochemical. The conditions noted are these: determined with respect to Ru(bpy)3^2+; — = not observed. The text has this:
Compounds BO and NO show strong fluorescence (ΦFBO=0.71, ΦF NO=0.28), but ISC is inefficient due to weak spin-orbit coupling (SOC).

Data set [3] relates to HeLa cells. Description: MTT photo/dark cytotoxicity assay with blue light irradiation. The format is cell-based. The conditions noted are these: for cell viability (dark cytotoxicity): MTT, FIGS. 3A and 3B, 20 μM printed for BS; for IC50: normoxia, after blue light irradiation, read-out: IC50 (photocytotoxicity); for cancer cell toxicity without light: working concentration; for cell death under blue light irradiation: both normoxia and hypoxia. On the procedure: Cell toxicity was evaluated by treating HeLa cells with 10 μM NS and BS solutions, respectively, incubating cells for 30 minutes, and then irradiating blue light (blue LED, 80 mW/cm^2) for 5 minutes. The results are shown in FIGS. 3A to 3C and FIGS. 4A to 4D. Based on the ^1O2 generation efficiency and photostability of BS and NS of FIGS. 3A to 3C, photo/dark cytotoxicity to HeLa cells was observed using MTT (traditional methyl thiazolytetralium) assay. FIGS. 3A and 3B show viability of 85% in BS (20 μM) and 97% in NS. The introduction of the C═S bond leads to a highly efficient ISC process, improving the generation of type I and type II ROS, thereby resulting in high ^1O2 quantum yield as well as O2· production. […] NS induces higher photocytotoxicity than BS by higher oxygen quantum yield and may be utilized as a phototheranostic agent with a low IC50 value in normoxia. Further, in FIG. 3C, NS (3 μM) has a cell viability of 29.6% under a normoxia condition and a cell viability of 36.5% under a hypoxia condition (mixed gas: 5% CO2, 1% O2 and 94% N2) so as to effectively induce photocytotoxicity to HeLa cells.

The subject of data set [4] is HeLa cells. The data set is described as follows: DCFH-DA ROS fluorescence imaging after blue LED irradiation. It counts as cell-based. To be noted: 5 μM, DCFH-DA 10 μM, blue LED 5 minutes. On the procedure: FIG. 4A is a diagram illustrating a fluorescence image of live HeLa cells after incubation in BS (5 μM) and DCFH-DA (10 μM) for 30 minutes, and FIG. 4C is a diagram illustrating a BS fluorescence image after light irradiation under blue LED light for 5 minutes thereafter (λ=473 nm and λem=490 to 590 nm) according to an example embodiment of the present disclosure in which these compounds were dissolved in DMSO.
FIG. 4B is a diagram illustrating s a fluorescence image of live HeLa cells after incubation in NS (5 μM) and DCFH-DA (10 μM) for 30 minutes according to an example embodiment of the present disclosure, and FIG. 4D is a diagram illustrating an NS fluorescence image after light irradiation under blue LED light for 5 minutes thereafter (λex=473 nm and λem=490 to 590 nm) in which these compounds were dissolved in DMSO.
Finally, their fluorescence is completely recovered after hypochlorite anion (OCl^−) treatment using the OCl^− probe of live HeLa cells. […] It may be confirmed that the C═S group plays an important role in the generation of type I ROS of previously unreported photosensitizers (PS).

Data set [5] can be described thus: Response and selectivity for detection of OCl− (UV-Vis and fluorescence). To be noted: 20 μM; for isosbestic point in UV-vis titration with OCl−: NaClO 0 to 75 μM, PBS pH 7.4 with 50% THF; for selectivity for OCl− among ROS, RNS and metal ions: OCl− 60 μM, PBS pH 7.4/THF (5/5); for fluorescence wavelength at which intensity was read: PBS buffer 10 mM pH 7.4 containing 50% THF. On the procedure:
Fluorescence intensity ratios were measured for each of BS and NS in […] (10 mM, pH=7.4) containing 50% THF at the presence of OCl^− (60 μM), ROO·(1 mM), NO·(1 mM), H2O2 (1 mM), TBHP (1 mM), ONOO^− (100 μM), ·OH (200 μM) and various metal ions (200 μM): Ag^+, Hg^2+, Fe^2+, and other ions (Ni^2+, Cu^2+, Zn^2+, Cd^2+, Mg^2+, Ca^2+, Cr^3+, Mn^2+, Fe^3+, Li^+, Na^+, K^+, Cs^+). Recognition of ROS, RNS and metal cations by BS and NS was investigated through colorimetric changes, UV absorption and fluorescence emission changes in PBS 7.4 pH/THF (5/5).
Similarly, in FIG. 6C, the broad absorption band decreases in the 420 to 600 nm range of the NS solution, whereas the absorption band at 370 nm gradually increases with OCI^−-addition (a characteristic of NO).
In Scheme 3, the photophysical change by oxidative desulfurization from the C═S groups of BS and NS to the corresponding C═O groups of BO and NO by hypochlorous acid (OCl^−) may be shown.

For data set [6], the system named is HeLa cells. The data set is described as follows: Bio-imaging of OCl− by confocal fluorescence microscopy. The format is cell-based. To be noted: 10 μM, 10 minutes, then OCl− 10 minutes. On the procedure: HeLa cells were treated with 10 μM NS and BS solutions, respectively. Then, HeLa cells were incubated for 10 minutes and then incubated with hypochlorous acid (OCl^−) for 10 minutes to perform hypochlorous acid (OCl^−) detection fluorescence signal and bioimaging.

For `O=c1c2cccc3cccc(c32)c2nc3ccccc3n12` [BO, reference compound], in data set [1], the “ΔV (Stock shift)” value is on record as 105 nm, the “ε × 10^3” value was 8.54 × 10^3 M^−1 cm^−1 and the λems worked out at 488 nm. Further, in data set [1] (Rhodamine 6G as the standard, — = not observed), the “ΦF (fluorescence quantum yield)” value stood at 0.71.
For `S=c1c2cccc3cccc(c32)c2nc3ccccc3n12` [BS], in data set [1], the “ΔV (Stock shift)” value is recorded as 66 nm, the “ε × 10^3” value is 10.85 × 10^3 M^−1 cm^−1 and the λems is recorded as 495 nm. Further, the “ΦΔ (singlet oxygen quantum yield)” value in data set [2] was 0.66. In data set [3] (HeLa cells), the “cell viability (dark cytotoxicity)” value is given as 85%; the IC50 (as a rule, the point on the concentration scale where inhibition reaches its midpoint) was found to be 5.81 µM; the “cancer cell toxicity without light” value is given as “negligible cancer cell toxicity”. The “cell death under blue light irradiation” value in data set [3] is “rapidly induce cell death”. Moreover, the “ROS generation (DCFH-DA green signal)” value in data set [4] is “may generate ROS”. In data set [5], the “isosbestic point in UV-vis titration with OCl−” value turned out to be 403 nm; the “selectivity for OCl− among ROS, RNS and metal ions” value is recorded as “high selectivity”; the “fluorescence wavelength at which intensity was read” value was determined as 505 nm. For the same molecule, the “intracellular OCl− detection” value in data set [6] is listed as “adequately detect OCl^−”.
Regarding `S=c1c2cccc3cccc(c32)c2nc3cc4ccccc4cc3n12` [NS], in data set [1], the “ΔV (Stock shift)” value is recorded as 110 nm, the “ε × 10^3” value was 17.87 × 10^3 M^−1 cm^−1 and the λems was 551 nm. Also, the “ΦΔ (singlet oxygen quantum yield)” value in data set [2] was 0.81. In addition, the “cell viability, hypoxia” value in data set [3] (HeLa cells, 3 μM, hypoxia condition (5% CO2, 1% O2 and 94% N2), light) stood at 36.5%. Also, in data set [3] (HeLa cells, 3 μM, normoxia condition, light), the “cell viability, normoxia” value turned out to be 29.6%. For the same molecule, in data set [3] (HeLa cells), the “cell viability (dark cytotoxicity)” value is listed as 97%, the IC50 worked out at 1.03 µM and the “cancer cell toxicity without light” value is listed as “negligible cancer cell toxicity”. In addition, the “cell death under blue light irradiation” value in data set [3] is listed as “rapidly induce cell death”. Besides, the “ROS generation (DCFH-DA green signal)” value in data set [4] was “may generate ROS”. Further, in data set [5], the “isosbestic point in UV-vis titration with OCl−” value was found to be 411 nm; the “selectivity for OCl− among ROS, RNS and metal ions” value was “high selectivity”; the “fluorescence wavelength at which intensity was read” value is listed as 559 nm. In addition, in data set [6], the “intracellular OCl− detection” value is “adequately detect OCl^−”.
